According to ChEMBL document CHEMBL6153125, “Harnessing the Magic Methyl Effect: Discovery of CLPP-2068 as a Novel HsClpP Activator for the Treatment of Diffuse Large B-Cell Lymphoma” (J Med Chem, 2025):
Non-standard residues stand in square brackets, D forms with d. Residues, ends and D or L forms follow the SMILES beside them. αMeP = C[C@@]1(C(=O)O)CCCN1

Tests used:
[1] = target: ATP-dependent Clp protease proteolytic subunit, mitochondrial (Homo sapiens, UniProt Q16740); assay: Activation of human ClpP extracted from Escherichia coli using Ac-WLA-AMC as substrate assessed as fluorescence signal measured after 10 mins incubation
ATP-dependent Clp protease proteolytic subunit, mitochondrial, sequence (Q16740 whole entry): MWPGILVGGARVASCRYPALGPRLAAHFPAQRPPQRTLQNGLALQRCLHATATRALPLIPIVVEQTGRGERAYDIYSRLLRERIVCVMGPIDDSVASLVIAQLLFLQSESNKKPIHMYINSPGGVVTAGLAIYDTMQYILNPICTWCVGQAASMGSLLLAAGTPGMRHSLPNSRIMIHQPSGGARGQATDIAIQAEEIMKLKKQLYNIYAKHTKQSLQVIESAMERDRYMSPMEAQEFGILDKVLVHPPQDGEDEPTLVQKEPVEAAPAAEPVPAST

OCI-Ly10 = assay: Antiproliferative activity against human OCI-Ly10 cells assessed as cell viability measured after 72 hrs incubation by CellTiter-based growth inhibition assay; details: OCI-Ly10, 72 h
[2] = target: Voltage-gated inwardly rectifying potassium channel KCNH2 (Homo sapiens, UniProt Q12809)
Voltage-gated inwardly rectifying potassium channel KCNH2, sequence (Q12809 whole entry): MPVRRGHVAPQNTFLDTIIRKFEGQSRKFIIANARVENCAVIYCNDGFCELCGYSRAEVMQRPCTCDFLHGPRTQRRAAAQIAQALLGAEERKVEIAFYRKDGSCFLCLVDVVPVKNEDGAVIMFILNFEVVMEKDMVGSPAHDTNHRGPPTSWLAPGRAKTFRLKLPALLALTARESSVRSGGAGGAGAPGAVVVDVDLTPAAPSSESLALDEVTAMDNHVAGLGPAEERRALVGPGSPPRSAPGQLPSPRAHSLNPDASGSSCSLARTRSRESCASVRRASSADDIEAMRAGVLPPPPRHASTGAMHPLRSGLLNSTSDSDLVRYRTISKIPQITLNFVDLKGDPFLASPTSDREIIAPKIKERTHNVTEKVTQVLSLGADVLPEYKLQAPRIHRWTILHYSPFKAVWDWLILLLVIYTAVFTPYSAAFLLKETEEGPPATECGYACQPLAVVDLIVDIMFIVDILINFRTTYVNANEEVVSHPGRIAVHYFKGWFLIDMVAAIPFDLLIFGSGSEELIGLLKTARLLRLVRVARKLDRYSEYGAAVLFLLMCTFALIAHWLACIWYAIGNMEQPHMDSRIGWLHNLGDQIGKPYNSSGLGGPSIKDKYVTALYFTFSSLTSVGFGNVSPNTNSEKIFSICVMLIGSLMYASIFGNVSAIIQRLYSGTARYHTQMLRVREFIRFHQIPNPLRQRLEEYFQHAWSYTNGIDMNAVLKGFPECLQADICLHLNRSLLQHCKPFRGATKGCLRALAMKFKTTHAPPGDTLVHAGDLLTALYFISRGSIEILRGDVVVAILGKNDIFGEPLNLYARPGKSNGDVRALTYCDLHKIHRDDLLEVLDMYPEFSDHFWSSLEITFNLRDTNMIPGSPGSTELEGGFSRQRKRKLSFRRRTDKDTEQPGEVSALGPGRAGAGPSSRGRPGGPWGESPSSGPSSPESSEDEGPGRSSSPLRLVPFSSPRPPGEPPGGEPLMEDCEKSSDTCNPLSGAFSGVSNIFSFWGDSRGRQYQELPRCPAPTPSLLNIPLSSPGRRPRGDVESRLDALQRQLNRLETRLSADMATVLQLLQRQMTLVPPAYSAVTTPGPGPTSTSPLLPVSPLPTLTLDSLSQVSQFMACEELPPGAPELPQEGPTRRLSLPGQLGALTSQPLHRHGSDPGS

[3] = target: T1, 3-hydroxy-3-methylglutaryl-coenzyme A reductase (Rattus norvegicus, UniProt P51639)
T1 sequence (P51639 whole entry): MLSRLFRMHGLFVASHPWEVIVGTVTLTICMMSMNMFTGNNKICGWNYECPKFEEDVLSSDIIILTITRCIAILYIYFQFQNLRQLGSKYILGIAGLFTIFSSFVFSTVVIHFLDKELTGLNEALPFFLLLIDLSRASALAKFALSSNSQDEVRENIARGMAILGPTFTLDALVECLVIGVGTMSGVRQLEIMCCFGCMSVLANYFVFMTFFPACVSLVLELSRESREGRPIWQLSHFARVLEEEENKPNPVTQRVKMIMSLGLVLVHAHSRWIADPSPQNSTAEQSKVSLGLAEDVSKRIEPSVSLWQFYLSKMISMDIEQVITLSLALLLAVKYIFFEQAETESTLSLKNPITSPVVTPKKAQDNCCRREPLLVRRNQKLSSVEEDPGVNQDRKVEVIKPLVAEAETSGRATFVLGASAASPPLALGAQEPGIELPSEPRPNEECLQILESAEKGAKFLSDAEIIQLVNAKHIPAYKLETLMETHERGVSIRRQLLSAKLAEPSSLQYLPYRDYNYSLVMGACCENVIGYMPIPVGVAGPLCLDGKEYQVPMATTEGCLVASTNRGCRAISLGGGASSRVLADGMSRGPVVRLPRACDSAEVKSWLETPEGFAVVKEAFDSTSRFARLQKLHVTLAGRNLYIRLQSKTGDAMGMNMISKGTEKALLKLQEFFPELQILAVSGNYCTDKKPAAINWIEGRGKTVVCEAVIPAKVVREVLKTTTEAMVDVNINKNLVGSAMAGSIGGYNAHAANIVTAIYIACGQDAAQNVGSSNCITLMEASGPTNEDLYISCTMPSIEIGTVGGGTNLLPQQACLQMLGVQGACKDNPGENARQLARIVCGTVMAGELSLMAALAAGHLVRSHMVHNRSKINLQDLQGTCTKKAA
Description: Inhibition of HMG-CoA reductase activity in rat liver microsomes

in vivo = details: rat, blood, iv, 10 mg/kg
Description: Elimination half life in rat blood at 10 mg/kg, iv measured after 12 hrs

Row | Structure (SMILES) | EC50 [1] [nM] | IC50 (OCI-Ly10) [nM] | IC50 [2] [nM] | IC50 [3] [nM] | half-life at 12 h (in vivo) [h]
1 | C[C@@H]1Cc2nc(NCc3ccc(C(F)(F)F)cc3)[nH]c(=O)c2CN1Cc1cccc(Br)c1 | 62.8 | 50.5 |  |  | 
2 | C[C@@H]1Cc2nc(NCC3CC3)[nH]c(=O)c2CN1Cc1cccc(C#N)c1 | 1430 | 4030 |  |  | 
3 | C[C@@H]1Cc2nc(NCc3ccc(C(F)(F)F)cc3)[nH]c(=O)c2CN1Cc1ccc(C#N)cc1 | 1360 | 6040 |  |  | 
4 | C[C@@H]1Cc2nc(NCc3ccccc3Br)[nH]c(=O)c2CN1Cc1cccc(C#N)c1 | 349 | 119 |  |  | 
5 | C[C@@H]1Cc2nc(NCc3ccc(C(F)(F)F)cc3)[nH]c(=O)c2CN1Cc1ccc(F)cc1 | 490 | 1080 |  |  | 
6 | C[C@@H]1Cc2nc(NCc3ccc(C(F)(F)F)cc3)[nH]c(=O)c2CN1Cc1cccc(Cl)c1 | 151 | 110 |  |  | 
7 | Cc1cccc(CNc2nc3c(c(=O)[nH]2)CN(Cc2cccc(C#N)c2)[C@H](C)C3)c1 | 113 | 148 |  |  | 
8 | C[C@@H]1Cc2nc(NCc3ccc(C(F)(F)F)cc3)[nH]c(=O)c2CN1Cc1cccc(F)c1 | 272 | 153 |  |  | 
9 | C[C@@H]1Cc2nc(NCc3ccc(C(F)(F)F)cc3)[nH]c(=O)c2CN1Cc1cccc(OC(F)(F)F)c1 | 270 | 1290 |  |  | 
10 | C[C@@H]1Cc2nc(NCc3ccc(C(F)(F)F)cc3)[nH]c(=O)c2CN1Cc1cccnc1 | 3380 | 7840 |  |  | 
11 | COc1cccc(CN2Cc3c(nc(NCc4ccc(C(F)(F)F)cc4)[nH]c3=O)C[C@H]2C)c1 | 1000 | 9010 |  |  | 
12 | C[C@@H]1Cc2nc(NCc3ccc(Br)cc3)[nH]c(=O)c2CN1Cc1cccc(C#N)c1 |  |  | 4910 |  | 
13 | C[C@@H]1Cc2nc(NCc3ccc(C(F)(F)F)cc3)[nH]c(=O)c2CN1Cc1ccncc1 | 3960 | 6400 |  |  | 
14 | C[C@@H]1Cc2nc(NCc3cccc(Br)c3)[nH]c(=O)c2CN1Cc1cccc(C#N)c1 | 44.8 | 89.1 |  |  | 
15 | C[C@@H]1Cc2nc(NCc3ccc(C(F)(F)F)cc3)[nH]c(=O)c2CN1Cc1ccccc1F | 1290 | 3100 |  |  | 
16 | CC[C@H](C)C(=O)O[C@H]1CCC=C2C=C[C@H](C)[C@H](CC[C@@H]3C[C@@H](O)CC(=O)O3)[C@H]21 [MEVASTATIN] |  |  |  | 5.6 | 
17 | C[C@@]1(C(=O)N[C@@H](CCC(=O)O)C(=O)O)CCCN1C(=O)CN [TROFINETIDE] (H-Gly-[αMeP]-Glu-OH) |  |  |  |  | 1.23
